Measurements as given in article PMC9889419 (Pharmacological Reports, 2022).
Values joined by “and” are separate entries in the source; they are usually repeats but may differ in a detail not shown here. Equal entries are not always repeated. Where two headings read alike, the source gives them in different places. Marks after values point to notes of the source that are not given here.

Assays:
[1] = test system: rats; assay: Maximal electroshock seizure (MES) test; assay type: in vivo; conditions: ip
[2] = test system: mice; assay: 6 Hz test; assay type: in vivo; conditions: mice
Protocol: The 6 Hz model test was carried out according to the protocol originally described by Brown et al. [54] and more recently by Barton et al. [55] and Kamiński et al. [47] and is a model of pharmacoresistant epilepsy [56].

[3] = test system: mice; assay: Corneal kindling; assay type: in vivo; conditions: […], ip
[4] = test system: rats; assay type: in vivo; conditions: ip
[5] = test system: rats; assay type: in vivo; conditions: ip; remark: listed apart in the source
[6] = test system: mice; assay: Rotarod test (neurotoxicity); assay type: in vivo; conditions: mice;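 further: in vivo neurotoxicity screen run within the NIH Epilepsy Therapy Screening Program (ETSP, formerly Anticonvulsant Screening Program)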
Protocol: (§3) The assays were carried out within the Epilepsy Therapy Screening Program (ETSP, previously known as the Anticonvulsant Screening Program, ASP), Epilepsy Branch, National Institute of Neurological and Communicative Disorders and Stroke, National Institutes of Health in Rockville, MD, USA [23].
(§4) The obtained compounds were screened for antiseizure activity and neurotoxicity in vivo within the Epilepsy Therapy Screening Program (ETSP, previously known as the Anticonvulsant Screening Program, ASP), Epilepsy Branch, National Institute of Neurological and Communicative Disorders and Stroke, National Institutes of Health in Rockville, MD, USA [23].

[7] = test system: mice; assay: Subcutaneous pentylenetetrazole seizure test (ScPTZ, SCMET); assay type: in vivo; conditions: mice, ip, […]
Protocol: as §3

[8] = test system: mice; assay: Formalin test (first screening); assay type: in vivo; conditions: 30.0 mg/kg, ip
Protocol: Formalin test. The first screening in doses 15 and 30 mg/kg was performed at the Jagiellonian University-Medical College. […] After 30 min, animals were injected with 20 μL of a 0.5% formalin solution into the plantar surface of the hind paw. The total time spent by animal licking or biting the injected paw was assessed for the following 40 min.

[9] = test system: mice; assay: Formalin test (ETSP, area under the curve); assay type: in vivo; conditions: 20.0 mg/kg, ip
[10] = test system: rats; assay: Sciatic nerve ligation (SNL) model, von Frey test; assay type: in vivo; conditions: ip
[11] = test system: mice; assay: Tail immersion test (local anesthetic activity); assay type: in vivo
Protocol: The tail immersion test in mice. […] The method was performed by subcutaneous (sc) injection of the tested substance dissolved in saline, at a concentration range 0.06–2%, in a constant volume of 0.2 mL about 1 cm from the root of the mouse tail. Fifteen minutes later, the 3-cm distal part of the tail was immersed into temperature-controlled water (50 ± 0.5 °C). The reaction time (latency until the tail is pulled away) was measured by the means of a chronometer. In this assay the cut-off was 20 s [29].

[12] = test system: guinea pigs; assay: Corneal anesthesia; assay type: in vivo
Protocol: A. Corneal anesthesia. […] The corneal reflex was examined by irritation of right eye conjunctiva (studied eye) and a left eye conjunctiva (control eye) by horsehair. The strength of local anesthetic activity was determined from the moment of solution instillation to the moment of reflex return. The presence or lack of corneal reflex were assessed. The eye conjunctiva irritation was done 6 times (every 5 s) with the interval of 5 min during the first 30 min [31].

[13] = test system: guinea pigs; assay: Infiltration anesthesia (intradermal wheal test); assay type: in vivo
Protocol: A painful reaction to a prick of the skin at the centre of the wheal three times and every 5 s with 5 min intervals during the first 30 min of observation was tested. The experiment was continued to achieve a return of a reaction to the prick. The control wheal was done by an intradermal injection of 0.1 mL of 0.9% NaCl [25]. Local anesthesia was determined by calculating the ratio of the number of positive responses (no flinch) to the number of negative responses (flinch).

[14] = test system: murine astrocytes; assay: MTT assay; assay type: cell-based
Protocol: Cells were seeded at a density of 1 × 10^4 cells per well in 96 well plates. […] Next, Crystal Dissolving Solution (Cayman) was added to each well.

[15] = test system: murine astrocytes; assay: Crystal violet (CV) assay; assay type: cell-based
Protocol: CV assay. Cells were seeded at a density of 1 × 10^4 cells per well in 96-well plates.

[16] = test system: organotypic hippocampal slice cultures; assay: Neuroprotection primary screen, excitotoxin NMDA; assay type: cell-based; conditions: NMDA 10 µM; 10 and 100 µM compound
Text: Gompound 1 : ADD Number: ItSot+ Batct: lE- Date Started:
Compound 2 : ADD Number: Froso Batct: le Date Completed i l|26-M ar -20 1 O […]
Excitotoxin: lNmoa lnsult Duration: la Uouo Solvent:
Primary Screen Results: ffi […]
Al lruuoa rolrr,| A2lr'rrr,tOa r Olrrr,t * --.- A3 lr'rnroa r oprvr + lsaoot+ t oplrl+aesogo iopM
BZ lr.rrr,ron ropr,t , -_-_-- 83 lluoa topt',r * jffi 1 4 t oopM.€sroso 1 oolrM la+eota tooptu*aasoeo roffi […]
The 'Primary screen Experiment" is a qualitative assessment of the ability of a compound to prevent excrtotoxic cell death. organotypic hippocampal slice cultures are treated *ltn r.i-."iivr-o-"spartate (NMDA) or kainic acad (KA) to induce neuronal cell death' Propidium iodide (Pl), a membrane-imper.eant cornpouna, is included in all wells of the culture plate.
Dying cells have compromised *]lT^"Toj*::, ttr. er rnJy oin "" into the cell, intercatate with DNA and fluoresce. Thus, the intensity of the Pl fluorescence is proportional to the amount of cell death in lhe individual itices. ttippocampat slice cullures are treated with the excitotoxin alone, or *i er. inoi"ui"o above, with the excitotoxin and either one -qf]bar-a Investigalional compounds at the concentrations indicated. lf neuroprotectron occurs as a consequence of the added […]
(§1) been treated with the excitotoxin alone.
(§2) (1 picture or pasted object on this page, not shown here)

[17] = test system: organotypic hippocampal slice cultures; assay: Neuroprotection primary screen, excitotoxin kainic acid; assay type: cell-based; conditions: kainic acid 20 µM; 10 and 100 µM compound
Protocol: Compound 2 : ADD t{umber, b890s0 Batch: lB- Date Compteted. Ect\,t""201 0 […]
Excilotoxin: llGinic ncia Insult Duration: l+ Hours Solvent: […]
Ai lxn zopr.,r aZ lxa zopr,r Ae lre zoprta
Bz lr<n zopn er ]ra zopr',t l:+aot a r ooprt/|*aa9o8o l oopM lgaeota t oot,tr,t*gB9o8o t oopM […]
The "Primary screen Experiment" is a qualitative assessment of the ability of a compound to prevent excitotoxic cell dearh. organotypic hippocampal slice clltures are treated with N-methyl-D-aipartate lNuoa; o; kainic acid (KA) to induce neuronal cell death. Propidium iodide (Pl), a membrane-impermeant compound, is included in all welts of the culture plate.
Dying cells have compromised cell membranes, thus Pl may diffuse into the cell, intercalate with DNA and ftuoresce. Thus, the intensity of the Pl fluorescence is proportional to the amount of cell death in the individual slices. Hippocampal slice cultures are treated with the excitotoxin alone, or where indicated above, with the excitotoxin and either one eltu/o investigational compounds at the concentrations indicated. lf neuroprotection occurs as a consequence of the added […]
as §1, §2

[18] = test system: mice; conditions: mice
Protocol: as §3, §4

[19] = test system: rats; assay: Rotarod / TOX (neurotoxicity); conditions: rats, ip
Protocol: as §3, §4

[20] = test system: rats; assay: SCMET (subcutaneous Metrazol) test; assay type: in vivo; conditions: rats, ip, 0.50 h
[21] = test system: slices; assay: Propidium iodide uptake in slices; assay type: cell-based; conditions: 100.00 uM
Text: Anticonvulsant Screeninq Proqram
Solvent Code: DMSO Solvent Prep:
Add Compound Conc,(uM) # of slices % ofTotal Propidium lodide Uptake(mean +,/- S.E.M)

[22] = test system: mice; conditions: mouse, in vivo
Protocol: They were also evaluated in the iv pentylenetetrazole (PTZ) test.
Data are expressed as the mean PTZ dose ± SEM for n = 10 that induced clonus or twitch in mice exposed to a particular dose of the test compound

[23] = test system: mice; conditions: ip; cited from earlier work
[24] = test system: mice; conditions: at 40 and 80 mg/kg, ip; cited from earlier work
[25] = test system: Frings mice; conditions: cited from earlier work

CC[C@H](CO)NCCOc1c(C)cccc1Cl.Cl [Compound 5a, R-(-)-2-((2-(2-chloro-6-methylphenoxy)ethyl)amino)butan-1-ol hydrochloride]
MES PI [1]: 10.15
MES TPE [1]: 0.25 h
MES ED50 ([1]; […]): 3.9 (2.1–6.2) mg/kg
6 Hz ED50 ([2]; 44 mA, TPE 0.5 h, ip): 52.49 (41.85–67.05) mg/kg
6 Hz TPE ([2]; 44 mA, ip): 0.5 h
6 Hz TPE ([2]; 44 mA, po): 0.25 h
Corneal kindling seizure score by Racine (0–5) ([3]; at 25 mg/kg): 4.3
Hippocampal kindling TPE [4]: 0.25 h
Hippocampal kindling seizure score by Racine (0–5), Rat1 ([4]; at 40 mg/kg): 4
Hippocampal kindling seizure score by Racine (0–5), Rat2 ([4]; at 40 mg/kg): 0
Pilocarpine-induced status epilepticus prevention: result ([5]; at 40 mg/kg): no activity
Rotarod TD50 ([6]; ip): 54.01 (35.70–64.23) mg/kg
Rotarod TPE ([6]; po): 0.25 h
Rotarod TD50 ([6]; po): 322.33 (257.98–382.69) mg/kg
SCMET ED50 [7]: > 70.00 mg/kg
% of effect (I phase) [8]: 19.4%
% of effect (II phase) [8]: 55.7%
Time of licking paw ± SEM (I phase) [8]: 72.3 ± 8.7 s
Time of licking paw ± SEM (II phase) [8]: 13.5 ± 5.4 s
Area under the curve, % of control (I phase) [9]: 76.5; t14 = 0.8847%
Area under the curve, % of control (II phase) [9]: 91.5; t14 = 0.5440%
SNL TPE ([10]; rat, in vivo): 1 h
SNL: active at ([10]; rats, von Frey test): 4 mg/kg
Prolongation of the time reaction ([11]; 0.031%): 40.0%
Reaction time to painful stimulus ([11]; 0.031%): 4.9 ± 0.9 s
Prolongation of the time reaction ([11]; 0.094%): 57.1%
Reaction time to painful stimulus ([11]; 0.094%): 5.5 ± 1.6 s
Prolongation of the time reaction ([11]; 0.125%): 297.1%
Reaction time to painful stimulus ([11]; 0.125%): 13.9 ± 1.8 s
Prolongation of the time reaction ([11]; 0.5%): 434.3%
Reaction time to painful stimulus ([11]; 0.5%): 18.7 ± 1.3 s
Prolongation of the time reaction ([11]; 2.0%): 391.4%
Reaction time to painful stimulus ([11]; 2.0%): 17.2 ± 1.9 s
Prolongation of the time reaction ([11]; […]): 8.6%
Reaction time to painful stimulus ([11]; […]): 3.8 ± 0.5 s
Inhibition of pain reaction ([12]; 0.125%, 5 min): 46.67* %
Inhibition of pain reaction ([12]; 0.125%, 30 min): 0%
Inhibition of pain reaction ([12]; 0.125%, 60 min): 0%
Inhibition of pain reaction ([12]; 0.125%, 120 min): 0%
Inhibition of pain reaction ([12]; 0.5%, 5 min): 80.55*** %
Inhibition of pain reaction ([12]; 0.5%, 30 min): 0%
Inhibition of pain reaction ([12]; 0.5%, 60 min): 0%
Inhibition of pain reaction ([12]; 0.5%, 120 min): 0%
Inhibition of pain reaction ([12]; […], 5 min): 36.11* %
Inhibition of pain reaction ([12]; […], 30 min): 0%
Inhibition of pain reaction ([12]; […], 60 min): 0%
Inhibition of pain reaction ([12]; […], 120 min): 0%
Inhibition of pain reaction ([13]; 0.125%, 5 min): 83.33*** %
Inhibition of pain reaction ([13]; 0.125%, 30 min): 44.44** %
Inhibition of pain reaction ([13]; 0.125%, 24 h): 0%
Inhibition of pain reaction ([13]; 0.5%, 5 min): 100*** %
Inhibition of pain reaction ([13]; 0.5%, 30 min): 72.22*** %
Inhibition of pain reaction ([13]; 0.5%, 60 min): 58.82** %
Inhibition of pain reaction ([13]; 0.5%, 120 min): 52.94** %
Inhibition of pain reaction ([13]; 0.5%, 24 h): 0%
Inhibition of pain reaction ([13]; […], 5 min): 100*** %
Inhibition of pain reaction ([13]; […], 60 min): 33.33* %
Inhibition of pain reaction ([13]; […], 240 min): 16.67%
Inhibition of pain reaction ([13]; […], 24 h): 0%
cytotoxic activity (MTT) [14]: did not exhibit cytotoxic activity
impact on proliferation (crystal violet) [15]: did not exhibit cytotoxic activity and a notable impact on proliferation
Test Result (neuroprotection) [16]: No neuroprotection
Test Result (neuroprotection) [17]: No neuroprotection observed
MES ED50 ([18]; ip): 19.78 (16.16–22.33) mg/kg
MES PI ([18]; po): 5.03
MES TPE ([18]; po): 0.25 h
MES ED50 ([18]; po): 64.12 (52.15–75.37) mg/kg
Rotarod TPE [19]: 0.25 h
Rotarod TD50 [19]: 39.6 (36.2–78.3) mg/kg

CC[C@@H](CO)NCCOc1c(C)cccc1Cl [Compound 6, S-( +)-2-((2-(2-chloro-6-methylphenoxy)ethyl)amino)butan-1-ol]
MES PI [1]: 4.19
MES TPE [1]: 0.5 h
MES ED50 ([1]; 0.5 h (TPE)): 10.58 (6.69–15.38) mg/kg
6 Hz ED50 ([2]; 32 mA, […], ip): 20.4 (14.9–25.4) mg/kg
Corneal kindling ED50 [3]: 10.50 (3.67–22.09) mg/kg
Hippocampal kindling ED50 ([4]; […]): 15.81 mg/kg
Pilocarpine-induced status epilepticus prevention: active at [5]: 45 mg/kg
Pilocarpine test: deaths ([5]; at 90 mg/kg): 8 deaths in 9 rats
Rotarod TD50 ([6]; ip): 47.7 (32.6–68.3) mg/kg
TOX TD50 ([6]; ip, 6 Hz report of Aug-2010): 35.8 mg/kg
Area under the curve (I phase) [9]: 135.3 ± 36.4
Area under the curve (II phase) [9]: 387.0 ± 110.1
Area under the curve, % of control (I phase) [9]: 69.3% and 69.3; t14 = 1.5800%
Area under the curve (I phase) ([9]; listed as 354010): 135.2
Area under the curve (II phase) ([9]; listed as 354010): 387.0
Area under the curve, % of control (II phase) ([9]; listed as 354010): 57.2%
SCMET ED50 [20]: > 60.0 mg/kg
% of Total Propidium Iodide Uptake (mean +/- S.E.M) [21]: 33.1%
Test Result (neuroprotection) [16]: No neuroprotection observed
influence on seizure threshold [22]: effect was not shown
Rotarod TD50 [19]: 44.29 (40.72–47.52) mg/kg

NC(=O)N1c2ccccc2C=Cc2ccccc21 [Carbamazepine]
MES ED50 [23]: 7.81 (6.32–8.45) mg/kg
6 Hz: Max. protection [24]: 75%
Frings mice sound-induced seizures ED50 [25]: 11.2 (7.73–16.2) mg/kg
